# Experimental data as given in patent US20090053138A1, “Stabilized Aptamers to Platelet Derived Growth Factor and their Use as Oncology Therapeutics” (priority 2002, published 2009).
# {PEG40k} = 40 kDa polyethylene glycol; [invdT] = inverted (3'-3') thymidine; [HEG] = hexaethylene glycol spacer
# Tests used:
# [1] = test system: LS174T colon cancer xenograft
# Text: Experimental overview. Human HT-29 or LS174T colon cancer xenotransplants were established in athymic nude mice (Nu/Nu mice, Charles River Labs, Wilmington, Mass.) by injecting mice with 1×10^7 HT29 cells (ATCC, Manassas, Va.), or 2×10^6 LS174T cells (ATCC Manassas, Va.) sub-cutaneously and allowing the tumors to grow for 5 days. On day 5, two dimensional measurements of the established tumors were taken using a digital caliper. Once tumor measurements were taken, the mice were randomized into groups such that the average tumor size was the same in each group. […]
# A third experiment (Experiment 3) was designed to test ARC308/irinotecan and GLEEVEC™/irinotecan dosing regimens in a colon cancer xenotransplant model using human colon carcinoma cell line LS174T (ATCC). […] ARC308 was dosed via intraperitoneal delivery at 50 mg/kg once daily, and GLEEVEC™ was dosed at 50 mg/kg once daily, Monday through Friday. ARC308 prevents PDGF-BB from binding the PDGF receptor; this molecule has a 30K PEG attached. […] The results are statistically significant (two tailed students T-test).
# An efficacy analysis of three treatment groups in this study is shown in Table 10 in terms of log cell kill and log cell kill net. Log cell kill is the log(base10) of the number of tumor cells before treatment divided by the number of cells after treatment. […] A fourth experiment (Experiment 4) was designed to further test ARC308/irinotecan dosing regimens in a colon cancer xenotransplant model using human colon carcinoma cell line LS174T (ATCC). […]
# [2] = Pharmacokinetics of ARC126 5′ PEG conjugates in mice
# Text: The pharmacokinetic (PK) data shown in FIG. 12A was subjected to non-compartmental analysis (NCA) using the industry-standard software package WinNonLin™ v.4.0 (Pharsight Corp., Mountain View, Calif.). […] The pharmacokinetic (PK) data shown in FIG. 12B was subjected to noncompartmental analysis (NCA) using the industry-standard software package WinNonLin™ v.4.0 (Pharsight Corp., Mountain View, Calif.).
# The pharmacokinetic (PK) data shown in FIG. 12B was subjected to noncompartmental analysis (NCA) using the industry-standard software package WinNonLin™ v.4.0 (Pharsight Corp., Mountain View, Calif.).
# Lewis lung carcinoma = test: Mouse Lewis lung carcinoma model; settings: scrambled aptamer 50 mg/kg
# Text: A 1 mm^3 piece of Lewis lung carcinoma was implanted under the dorsal skin of wild-type C57BL/6 mice and allowed to grow. […] At the end of the seven day period, the mice were anesthetized, and the following tissues were fixed by vascular perfusion with 1% paraformaldehyde, removed and frozen for cryotstat sectioning: tumor (Lewis lung carcinoma), pancreas, liver, kidney, trachea, spleen, jejunum, and thyroid tissue. The resulting slides were stained with antibodies against various markers as described below.
# Sections of tumors were cut (80 μm) and stained with either anti-CD31 or anti-α smooth muscle actin (“α-SMA”) antibodies. Digital fluorescence microscopic images were obtained for area density measurements by using a CoolCam low-light 3-chip RGB CCD camera. […] In addition, the tumors were imaged by confocal microscopy. […]
# Sections of tumors were cut (80 μm) and stained with either anti-CD31 or anti-type IV collagen antibodies. Digital fluorescence microscopic images were obtained for area density measurements by using a CoolCam camera. […]
# Pericyte expression was measured using the Cool Cam and confocal images were also taken.
# The extent of pericyte colocalization with endothelial cells was then measured on digital Cool Cam images.
# The extent of pericyte colocalization with endothelial cells was measured on digital CoolCam images. […]
# [3] = IV administration at 10 mg/kg in mice
Substance,efficacy of irinotecan (rate of tumor growth) ([1]; Experiment 2: ARC127 50 mg/kg IP once daily + irinotecan 150 mg/kg weekly vs irinotecan alone),dose-limiting side effects ([1]; in vivo experiments),"AUC ([2]; IP, 10 mg/kg in mice) [nM·h]","MRT ([2]; IP, 10 mg/kg in mice) [h]","tmax ([2]; IP, 10 mg/kg in mice) [h]","Cmax [2, 3] [µM]","MRT [2, 3] [h]","Vs [2, 3] [L/kg]","AUC ([2]; IV, 10 mg/kg in mice) [nM·h]","MRT ([2]; IV, 10 mg/kg in mice) [h]","tmax ([2]; IV, 10 mg/kg in mice) [h]","plasma concentration at 24 hrs post-dose ([2]; IV, IP or SC, 10 mg/kg in mice)","AUC ([2]; SC, 10 mg/kg in mice) [nM·h]","MRT ([2]; SC, 10 mg/kg in mice) [h]","tmax ([2]; SC, 10 mg/kg in mice) [h]","systemic bioavailability, F ([2]; intraperitoneal (IP), 10 mg/kg in mice) [%]","systemic bioavailability, F ([2]; subcutaneous (SC), 10 mg/kg in mice) [%]",effect on tumor vasculature (confocal images) (Lewis lung carcinoma)
"5′-[40 K PEG]-(SEQ ID NO:1)-HEG-(SEQ ID NO:2)-HEG-(SEQ ID NO:3)-3′-dT-3′ (chain 1 CAGGCUACG; chain 2 CGTAGAGCAUCA; chain 3 TGATCCUG; piece 1: 2'-fluoro at 6, 8, 2'-O-methyl at 9, 5' {PEG40k}, 3' [HEG], other sugars and backbone not given here; piece 2: 2'-O-methyl at 5, 7, 12, 2'-fluoro at 10, 11, 3' [HEG], other sugars and backbone not given here; piece 3: 2'-fluoro at 5, 6, 7, 2'-O-methyl at 8, 3' [invdT], other sugars and backbone not given here) [ARC127]",enhanced the efficacy of irinotecan treatment,not evident,143605.5,11.231,8,61,5.08,0.0001,229686.8,6.573,2,~1,55030.91,16.632,8,~63,~24,
"5′-(SEQ ID NO.4)-HEG-(SEQ ID NO:5)-HEG-(SEQ ID NO:6)-3 (chain 1 CAGCGUACG; chain 2 CGTACCGATUCA; chain 3 TGAAGCUG; HEG spacers joining pieces; synthetic aptamer; modified_base (4)..(4) cytidine is 2′-fluoro; modified_base (5)..(5) gm; modified_base (6)..(6) uridine is 2′-fluoro; modified_base (8)..(8) cytidine is 2′-fluoro; modified_base (9)..(9) gm; modified_base (7)..(7) gm; modified_base (10)..(10) uridine is 2′-fluoro; modified_base (11)..(11) cytidine is 2′-fluoro; modified_base (12)..(12) adenosine is 2′-O-Methyl; modified_base (6)..(6) cytidine is 2′-fluoro; modified_base (7)..(7) uridine is 2′-fluoro; modified_base (8)..(8) gm) [ARC128, reference compound]",,,,,,,,,,,,,,,,,,did not affect the tumor vasculature
